Source: patent US5494932A, “Sulfonic stilbene derivatives in the treatment of viral disease” (Merrell Dow Pharmaceuticals Inc., priority 1991, dated 1996)
Where two headings read alike, the source gives them in different places.

Columns and labels:
[1] = tested on: HIV-1 strain RF in C8166 cells; test: Acute HIV-1 (RF) infection of C8166 cells: syncytial and p24 antigen assays; assay type: cell-based, HIV-1 (human C8166 cells)
Source text: When evaluated in the human T cell line JM acutely infected with the GB8 virus, DIDS, H2 DIDS and SITS (Table I) suppressed virus-induced multinucleated giant cell formation (syncytia). […] We also examined the antiviral properties of these compounds in a second host-cell/virus system, i.e., the highly CD4+ C8166 cells infected with the Haitian strain of HIV-1, RF.
The cell lines used were the semi-mature human lymphoblastoid leukemia T cell line JM, the human T-lymphoblastoid C8166 cell line, the human cutaneous T cell lymphoma line H9 and, the human T cell transformed line MT-4. Stocks of HIV-1 strains RF and GB8 (kindly provided by Dr. Graham Farrar, Center for Applied Microbiological Research, Porton Dawn, England) were prepared from chronically infected H9 cells and acutely infected JM cells, respectively. Virus stocks consisted of cell-free growth medium (RPMI 1640 plus 10% fetal calf serum) containing freshly shed virus. Virus titres were determined by a standard plaque reduction assay.
Virus stocks (strains RF or GB8) were diluted into growth medium containing various concentrations of DIDS, H2 DIDS or SITS. The required number of cells were then immediately added and the virus allowed to absorb for 2 hours at 37° C. to give a multiplicity of infection (MOI) of 0.001 infectious units/cell. The virus-infected cells were pelleted, washed three times in phosphate buffered saline (PBS), and resuspended in fresh growth medium containing the appropriate concentrations of stilbene disulfonic acids. Cells were then distributed into 24-well culture plates (Falcon) and assayed as described below for virus infection. Alternatively, cells were first infected with HIV-1 (strains RF or GB8) for 2 hours at 37° C. at the above MOI. After extensive washing, cells were replated into fresh growth medium containing various concentrations of stilbene disulfonic acids. In the above experiments, syncytia were scored between 2 and 4 days postinfection (p.i.) in triplicate using an Olympus CK2 inverted microscope. The culture fluids were recovered between 3 and 5 days p.i., clarified by low speed centrifugation (2,000 rpm) for 5 minutes and the level of HIV-1 p24 core antigen in the supernatants was determined by p24 antigen ELISA (Coulter). The concentrations of stilbene disulfonic acids giving 50% inhibition of HIV-1 growth (IC50) were determined from the dose-response curves by linear regression analysis.

HSV 2 = test: Plaque reduction assay, HSV 2; assay type: cell-based; details: for activity at 0.1 µg/mL / activity at 1 µg/mL / activity at 10 µg/mL / activity at 100 µg/mL: read-out: Mean % VC (plaques)
Protocol: Protocol: Plaque reduction assay. Treatment after adsorption during incubation.

[2] = tested on: HIV-1 strain GB8 in JM cells; test: Established HIV-1 (GB8) infection of JM cells, post-infection addition: syncytia and p24 antigen; assay type: cell-based, HIV-1 (human T cell line JM); details: for activity at 100 µg/mL: Human immunodeficiency virus 1, 75 h
Protocol: The stilbene disulfonic acids blocked HIV-1 replication when the compounds were added within 2 hours of virus adsorption, i.e., prior to virus penetration, and the cells were cultured in the presence of the inhibitors. These compounds were next examined for antiviral activity at later stages of the infection process. At a MOI of 0.01 infectious units/cell (GB8 virus), viral glycoproteins appear at the surface of JM cells by 24 hours post-infection (p.i.) and initiate fusion with neighboring CD4^+ cells; the syncytial numbers show a good correlation with the production of cell-free virus (Tyms et al., 1990).
In post-treatent experiments, cells were first infected with HIV-1 strain RF or GB8 for 2 hours at 37° C. at a MOI of 0.01 and allowed to grow for either 24 or 43 hours before replating into fresh growth medium containing 100 μg/ml of DIDS, H2 DIDS or SITS. Syncytia were then scored at 52 and 68 hours p.i. in triplicate, and p24 viral core antigen in culture fluids were assayed at 75 hours p.i. as described above.
Protocol: JM cells were infected with HIV at a multiplicity of infection of 0.00025 syncytial forming units per cell. Virus adsorption was at room temperature for one hour. The cells were then washed three times and distributed in wells of a tissue culture plate at a concentration of 2×10^5 cells/well. Either DIDS, SITS or H2 DIDS (all at 100 μg/ml) were added to wells at 0, 24, 43 and 51 hours post-infection. As virus controls some wells had no drug added. Syncytia were scored at 43, 52 and 68 hours post-infection. The cell-free supernatant fluids of the virus control wells were harvested after 33, 43, 51, 68 and 75 hours post-infection. All other wells were harvested 75 hours post-infection. The supernatant fluid was then assayed for p24 viral core antigen.

[3] = Human immunodeficiency virus 1, RF strain in C8166 cells, read-out: P24 Antigen % Virus Control (values in parenthesis)
[4] = 100 μg/ml, time of addition 0 h p.i.
[5] = 100 μg/ml, time of addition 24h
[6] = 100 μg/ml, time of addition 24 hours
[7] = 100 μg/ml, time of addition 24 h p.i.
[8] = 100 μg/ml, time of addition 43h
[9] = 100 μg/ml, time of addition 43 hours
[10] = 100 μg/ml, time of addition 43 h p.i.
[11] = 100 μg/ml, time of addition 51h
[12] = 100 μg/ml, time of addition 51 hours

Structure (SMILES): O=S(=O)(O)c1cc(N=C=S)ccc1C=Cc1ccc(N=C=S)cc1S(=O)(=O)O [DIDS, 4,4'-diisothiocyanatostilbene-2,2'-disulfonic acid]
- HIV-1 infection ([1]; C8166 cells infected with RF): blocked HIV-1 infection
- activity at 25 µg/mL ([1]; Human immunodeficiency virus 1, 25 µg/mL, RF strain in C8166 cells, read-out: P24 Antigen % Virus Control (values in parenthesis)): 100%
- activity at 50 µg/mL [1, 3]: 83%
- activity at 100 µg/mL [1, 3]: 33%
- activity at 200 µg/mL [1, 3]: 4.8%
- Plaque counts (HSV 2; 0.1 μg/ml, first count): 37
- activity at 0.1 µg/mL (HSV 2; 0.1 μg/ml): 68%
- Plaque counts (HSV 2; 0.1 μg/ml, second count): 40
- Plaque counts (HSV 2; 1 μg/ml, first count): 31
- activity at 1 µg/mL (HSV 2; 1 μg/ml): 61%
- Plaque counts (HSV 2; 1 μg/ml, second count): 33
- Plaque counts (HSV 2; 1 μg/ml, third count): 39
- Plaque counts (HSV 2; 10 μg/ml, first count): 25
- activity at 10 µg/mL (HSV 2; 10 μg/ml): 44%
- Plaque counts (HSV 2; 10 μg/ml, second count): 25
- Plaque counts (HSV 2; 10 μg/ml, third count): 25
- Plaque counts (HSV 2; 100 μg/ml, first count): 0
- activity at 100 µg/mL (HSV 2; 100 μg/ml): 0%
- Plaque counts (HSV 2; 100 μg/ml, second count): 0
- Plaque counts (HSV 2; 100 μg/ml, third count): 0
- syncytia by 68 hours p.i. ([2]; 100 μg/ml, added 43 hours p.i.): completely absent
- fusion relative to virus control ([2]; 100 μg/ml, addition 24 hours p.i., scored at 52 and 68 hours p.i.): completely suppressed fusion
- Mean Syncytia 68 hrs ([2]; 100 μg/ml, time of addition 0h): 0
- P24 Antigen (75 hours post-infection) ([2]; 100 μg/ml, time of addition 0 hours): Neg
- P24 Antigen 75 h [2, 4]: Neg
- Syncytia at 52h [2, 4]: 0
- Syncytia at 68h [2, 4]: 0
- Mean Syncytia 68 hrs [2, 5]: 0
- P24 Antigen (75 hours post-infection) [2, 6]: Neg
- P24 Antigen 75 h [2, 7]: Neg
- Syncytia at 52h [2, 7]: 0
- Syncytia at 68h [2, 7]: 0
- Mean Syncytia 51 hrs [2, 8]: 19
- Mean Syncytia 68 hrs [2, 8]: 0
- P24 Antigen (75 hours post-infection) [2, 9]: 2793 pg/mL
- P24 Antigen 75 h [2, 10]: 2.8 ng/mL
- Syncytia at 52h [2, 10]: 19
- Syncytia at 68h [2, 10]: 0
- Mean Syncytia 68 hrs [2, 11]: 25
- P24 Antigen (75 hours post-infection) [2, 12]: 49050 pg/mL
- activity at 100 µg/mL ([2]; read-out: P24 Antigen (75 hours post-infection), %, 100 μg/ml, time of addition 0 hours): > 1%
- activity at 100 µg/mL ([2]; read-out: P24 Antigen (75 hours post-infection), %, 100 μg/ml, time of addition 24 hours): < 1%
- activity at 100 µg/mL ([2]; read-out: P24 Antigen (75 hours post-infection), %, 100 μg/ml, time of addition 43 hours): 2.4%
- activity at 100 µg/mL ([2]; read-out: P24 Antigen (75 hours post-infection), %, 100 μg/ml, time of addition 51 hours): 42%
- relative order of antiviral potency ([2]; established HIV-1 infections): DIDS>H2 DIDS>>SITS

Structure (SMILES): O=S(=O)(O)c1cc(N=C=S)ccc1CCc1ccc(N=C=S)cc1S(=O)(=O)O [H2 DIDS, 4,4'-diisothiocyanatodihydrostilbene-2,2'-disulfonic acid]
- activity at 50 µg/mL [1, 3]: > 100%
- activity at 100 µg/mL [1, 3]: 59%
- activity at 200 µg/mL [1, 3]: 2.5%
- Plaque counts (HSV 2; 0.1 μg/ml, first count): 35
- Plaque counts (HSV 2; 0.1 μg/ml, second count): 35
- Plaque counts (HSV 2; 1 μg/ml, first count): 23
- Plaque counts (HSV 2; 1 μg/ml, second count): 31
- Plaque counts (HSV 2; 1 μg/ml, third count): 24
- Plaque counts (HSV 2; 10 μg/ml, first count): 26
- Plaque counts (HSV 2; 10 μg/ml, second count): 19
- Plaque counts (HSV 2; 10 μg/ml, third count): 21
- Plaque counts (HSV 2; 100 μg/ml, first count): 0
- Plaque counts (HSV 2; 100 μg/ml, second count): 0
- Plaque counts (HSV 2; 100 μg/ml, third count): 0
- activity at 0.1 µg/mL (HSV 2): 63%
- activity at 1 µg/mL (HSV 2): 46%
- activity at 10 µg/mL (HSV 2): 43%
- activity at 100 µg/mL (HSV 2): 0%
- Mean Syncytia 68 hrs ([2]; 100 μg/ml, time of addition 0h): 0
- P24 Antigen 75 h [2, 4]: Neg
- Syncytia at 52h [2, 4]: 0
- Syncytia at 68h [2, 4]: 0
- Mean Syncytia 68 hrs [2, 5]: 0
- P24 Antigen (75 hours post-infection) [2, 6]: 2363 pg/mL
- P24 Antigen 75 h [2, 7]: 2.4 ng/mL
- Syncytia at 52h [2, 7]: 0
- Syncytia at 68h [2, 7]: 0
- Mean Syncytia 51 hrs [2, 8]: 19
- Mean Syncytia 68 hrs [2, 8]: 3
- P24 Antigen (75 hours post-infection) [2, 9]: 16412 pg/mL
- P24 Antigen 75 h [2, 10]: 16.4 ng/mL
- Syncytia at 52h [2, 10]: 19
- Syncytia at 68h [2, 10]: 3
- Mean Syncytia 68 hrs [2, 11]: 15
- P24 Antigen (75 hours post-infection) [2, 12]: 42020 pg/mL
- activity at 100 µg/mL ([2]; 100 μg/ml, time of addition 0 hours, read-out: P24 Antigen (75 hours post-infection), %): < 1%
- activity at 100 µg/mL ([2]; 100 μg/ml, time of addition 0 h p.i., read-out: P24 Antigen 75 h, % (drug-free medium 100%)): 0%
- activity at 100 µg/mL ([2]; 100 μg/ml, time of addition 24 hours, read-out: P24 Antigen (75 hours post-infection), %): 2%
- activity at 100 µg/mL ([2]; 100 μg/ml, time of addition 24 h p.i., read-out: P24 Antigen 75 h, % (drug-free medium 100%)): 2%
- activity at 100 µg/mL ([2]; 100 μg/ml, time of addition 43 hours, read-out: P24 Antigen (75 hours post-infection), %): 14%
- activity at 100 µg/mL ([2]; 100 μg/ml, time of addition 43 h p.i., read-out: P24 Antigen 75 h, % (drug-free medium 100%)): 14%
- activity at 100 µg/mL ([2]; 100 μg/ml, time of addition 51 hours, read-out: P24 Antigen (75 hours post-infection), %): 36%
